According to US5698547A, “Cephalosporin antibiotics” (Microcide Pharmaceuticals, Inc., priority 1995, dated 1997):
Values after ≈ are worked out from the molar mass of the structure shown.

Legend:
[1] = test system: S. aureus Col (Meth^R) (lac^-); assay: MIC by agar dilution, S. aureus Col (Meth^R) (lac^-); type: cell-based; conditions: Staphylococcus aureus; agar dilution; S. aureus Col (Meth^R) (lac^-); read-out: MIC
Procedure: The compounds of the invention were evaluated against several β-lactamresistant bacteria strains by determining the minimum inhibitory concentration (MIC, μg/ml) of each compound with respect to each strain. The MIC, the lowest concentration of antibiotic which inhibits growth of the test organism, was determined by the agar dilution method.
To determine the MIC for bacterial isolates, the test compound was incorporated in a series of two-fold dilutions into liquified Mueller-Hinton agar. Upon solidification, a number of different bacterial strains were spot inoculated with a replicating device onto the agar surface. […] The procedures used in these studies have been standardized by the National Committee for Clinical Laboratory Standards (NCCLS), as per the NCCLS publication entitled METHODS FOR DILUTION ANTIMICROBIAL SUSCEPTIBILITY TESTS (1991), which is incorporated herein by reference.
Aliquots of antimicrobial agents were prepared in phosphate buffered saline (PBS) at pH 7.2. Tween 20 or DMSO was used as a solubilizing vehicle as needed. Standard methods of vortexing, sonicating and gentle heat were used to facilitate solubilizing the test agent. Typically, the concentration of the stock solution was 10× that of the highest drug concentration tested. A 1.28 mg/mL stock solution was used with a subsequent highest working concentration of 128 μg/mL. Serial two-fold dilutions were done through ≤0.25 μg/mL. Each drug level was tested in duplicate. Two-fold drug dilutions were done in sterile 50 mL tubes with a final drug volume of 5 mL. Upon the addition of 45 mL of molten agar, a 10-fold dilution resulted. Two, 25 mL. plates were then poured into 15×150 mm square Petri plates with grids and allowed to harden.
A control plate with a reference drug, either cefotaxime, vancomycin or imipenem, was used as the positive growth control. Stock concentrations of reference antibiotics were prepared and frozen at -80° C. Upon preparation, the control plates were sealed and stored in the refrigerator for up to 1 week prior to use; however, imipenem control plates had to be prepared just prior to use. All test plates were used within 24 hours of preparation.
Satisfactory results were obtained where the inoculum contained about 10^4 colony forming units (cfu) ±0.5 logs. Starting with pure cultures of the test isolates on agar plates, a few isolated colonies were transferred to a tube of nutrient broth and allowed to grow 4-6 hours at 35°-36° C. to reach log-phase growth. Dropwise addition of the broth culture to PBS was done to match a 0.5 McFarland turbidity standard equal to 10^8 cfu/mL. This was further diluted ten-fold in PBS to reach a working inoculum concentration of 10^7 cfu/mL. When 1 μL of the working inoculum was applied to the agar surface a concentration of about 10^4 cfu per spot was obtained.
Disposable sterile 1 μL loops were used to inoculate test plates, with each isolate in a designated grid on the agar plate. An alternate method of inoculation involved the use of a replica plater, a device with 48 steel pins allowing the simultaneous inoculation of multiple isolates. After the spots had dried, the plates were incubated at 35°-36° C. for 16-20 hours. Endpoints were assessed as the minimum inhibitory concentration (MIC) of antimicrobial agent.
The novel agents of this invention are notable for their enhanced activity against S. aureus Col and Enterococci (E. faecium and E. faecalis). The S. aureus Col strain is a high-level PBP2a producer, whereas S. aureus Col 8A, its isogenic partner, lacks PBP2a. […] Thus, the compounds of the present invention are effective against PBP2a-producing bacteria.

[2] = test system: methicillin-susceptible S. aureus strain ATCC 13709; assay: murine model for lethal bacteremic peritonitis; type: in vivo, female Swiss-Webster mice; conditions: subcutaneous, 72 h
Procedure: Groups of 5 female Swiss-Webster mice (Simonsen, Gilroy, Calif.) each are challenged by the intraperitoneal (IP) route with tenfold increments of a bacterial inoculum. This permits calculation of the mean lethal dose (LD50) and the LD100. For preliminary evaluation of a new antibiotic, mice are challenged IP with an LD100 titer of bacteria. In two equal doses administered at the time of bacterial challenge and 2 hours later, groups of 10 mice each are treated subcutaneously with two-fold increments of the test drug and an antibiotic of known efficacy in mice and humans (i.e., positive control). Mice are observed for 72 h. Those alive at 72 h are considered long term survivors. The total drug dose in mg/kg that protects 50% of mice in a group from death is termed the mean protective dose (PD50). PD50 s are similarly determined for several pathogens. The quantitative endpoints for the new drug are then compared with those obtained with reference antibiotics.
Six ten-fold dilutions of inoculum suspended in 0.5 mL of sterilized 7% hog gastric mucin (Sigma) are injected IP in groups of 5 mice each. A control group of 5 mice receive mucin alone. Mice are observed for 72 h. Those alive at 72 h are considered long term survivors. The mean lethal dose (LD50) and 100% lethal dose (LD100) are determined by the probit test.
For antibiotic efficacy studies, mice are challenged IP with bacterial titers that will afford an LD100 for the test strain. In two equal doses administered at the time of bacterial challenge and 2 hours later, groups of 10 mice each are treated by the subcutaneous route (SC) with twofold increments of the test antibiotic; another group is treated similarly with a reference antibiotic of known efficacy in animals and man. Drug doses can range from 0.01 to 512 mg/kg. If the drug is poorly soluble, Tween 20 or propylene glycol will be employed to solubilize the drug. Animals are observed for 72 h. The 50% protective dose (PD50) is calculated in mg/kg by the probit method. The PD50 is the same as the 50% effective dose (ED50) and the 50% curative dose (CD50). Samples of blood from the hearts of all animals that die and from half the mice that survive are cultured on brain-heart infusion agar. Animals that received a protective dosage of the test drug will be alive at 72 h, although they may appear moderately ill to very ill during the observation period. […] Most of these mice will die within 6 to 48 h. Those alive at 72 h will be considered long term survivors.
(Compound numbers correspond to those in MIC tables; data
reported for challenge with methicillin-susceptible S. aureus

Row | SMILES | MIC [1] [µg/mL] | other results
1 | O=C(Cc1ccccc1)N[C@@H]1C(=O)N2C(C(=O)O)=C(Sc3ccc(F)cc3)CS[C@H]12 [Cmpd 1, (7R)-7-[(Phenylacetyl)amino]-3-(p-fluorophenylthio)-3-cephem-4-carboxylic acid] | 16 (≈ 36 µM) | 
2 | O=C(Cc1ccccc1)N[C@@H]1C(=O)N2C(C(=O)O)=C(Sc3cccc(I)c3)CS[C@H]12 [Cmpd 2, (7R)-7-[(Phenylacetyl)amino]-3-(m-iodophenylthio)-3-cephem-4-carboxylic acid] | 2 (≈ 3.62 µM) | 
3 | O=C(Cc1ccccc1)N[C@@H]1C(=O)N2C(C(=O)O)=C(Sc3ccc(Cl)cc3)CS[C@H]12 [Cmpd 3, (7R)-7-[(Phenylacetyl)amino]-3-(p-chlorophenylthio)-3-cephem-4-carboxylic acid] | 2 (≈ 4.34 µM) | 
4 | O=C(Cc1ccccc1)N[C@@H]1C(=O)N2C(C(=O)O)=C(Sc3ccccc3Br)CS[C@H]12 [Cmpd 4, (7R)-7-[(Phenylacetyl)amino]-3-(o-bromophenylthio)-3-cephem-4-carboxylic acid] | 1 to 2 (≈ 1.98 to 3.96 µM) | 
5 | O=C(Cc1ccccc1)N[C@@H]1C(=O)N2C(C(=O)O)=C(Sc3ccc(Br)cc3)CS[C@H]12 [Cmpd 5, (7R)-7-[(Phenylacetyl)amino]-3-(p-bromophenylthio)-3-cephem-4-carboxylic acid] | 2 (≈ 3.96 µM) | 
6 | O=C(Cc1ccccc1)N[C@@H]1C(=O)N2C(C(=O)O)=C(Sc3ccc4c(c3)oc3ccccc34)CS[C@H]12 [Cmpd 7, (7R)-7-[(Phenylacetyl)amino]-3-(dibenzofuranyl-3-thio)-3-cephem-4-carboxylic acid] | 4 (≈ 7.74 µM) | 
7 | O=C(Cc1ccccc1)N[C@@H]1C(=O)N2C(C(=O)O)=C(Sc3ccc(-c4ccccc4)cc3)CS[C@H]12 [Cmpd 8, (7R)-7-[(Phenylacetyl)amino]-3-(4-biphenylthio)-3-cephem-4-carboxylic acid] | 4 (≈ 7.96 µM) | 
8 | O=C(Cc1ccccc1)N[C@@H]1C(=O)N2C(C(=O)O)=C(Sc3cccc(-c4ccccc4)c3)CS[C@H]12 [Cmpd 10, (7R)-7-[(Phenylacetyl)amino]-3-(3-biphenylthio)-3-cephem-4-carboxylic acid] | 8 (≈ 15.9 µM) | 
9 | O=C(Cc1ccccc1)N[C@@H]1C(=O)N2C(C(=O)O)=C(Sc3ccc(-c4ccccc4)cc3Br)CS[C@H]12 [Cmpd 11, (7R)-7-[(Phenylacetyl)amino]-3-(2-bromo-4-biphenylthio)-3-cephem-4-carboxylic acid] | 1 (≈ 1.72 µM) | 
10 | O=C(Cc1ccccc1)N[C@@H]1C(=O)N2C(C(=O)O)=C(Sc3ccc(-c4ccccc4)cc3F)CS[C@H]12 [Cmpd 13, (7R)-7-[(Phenylacetyl)amino]-3-(2-fluoro-4-biphenylthio)-3-cephem-4-carboxylic acid] | 4 (≈ 7.68 µM) | 
11 | O=C(Cc1ccccc1)N[C@@H]1C(=O)N2C(C(=O)O)=C(Sc3cc(Cl)ccc3Cl)CS[C@H]12 [Cmpd 16, (7R)-7-[(Phenylacetyl)amino]-3-(2,5-dichlorophenylthio)-3-cephem-4-carboxylic acid] | < 0.5 | 
12 | O=C(Cc1ccccc1)N[C@@H]1C(=O)N2C(C(=O)O)=C(Sc3ccc(Cl)c(Cl)c3)CS[C@H]12 [Cmpd 18, (7R)-7-[(Phenylacetyl)amino]-3-(3,4-dichlorophenylthio)-3-cephem-4-carboxylic acid] | 4 (≈ 8.07 µM) | 
13 | COC(=O)c1ccccc1SC1=C(C(=O)O)N2C(=O)[C@@H](NC(=O)Cc3ccccc3)[C@H]2SC1 [Cmpd 19, (7R)-7-[(Phenylacetyl)amino]-3-(o-carbomethoxyphenylthio)-3-cephem-4-carboxylic acid] | 4 (≈ 8.25 µM) | 
14 | O=C(Cc1cccs1)N[C@@H]1C(=O)N2C(C(=O)O)=C(Sc3ccccc3Br)CS[C@H]12 [Cmpd 20, (7R)-7-[(2-Thienylacetyl)amino]-3-(o-bromophenylthio)-3-cephem-4-carboxylic acid] | 0.5 (≈ 0.978 µM) | 
15 | O=C(Cc1ccccc1)N[C@@H]1C(=O)N2C(C(=O)O)=C(Sc3cccc4oc5ccccc5c34)CS[C@H]12 [Cmpd 21, (7R)-7-[(Phenylacetyl)amino]-3-(dibenzofuranyl-1-thio)-3-cephem-4-carboxylic acid] | 1 (≈ 1.94 µM) | 
16 | Nc1nc(/C(=N/O)C(=O)N[C@@H]2C(=O)N3C(C(=O)O)=C(Sc4ccccc4I)CS[C@H]23)cs1 [Cmpd 22, (7R)-7-[(Z)-2-(aminothiazol-4-yl)-2-(hydroxyimino)acetamido]-3-(o-iodophenylthio)-3-cephem-4-carboxylic acid] | 2 (≈ 3.31 µM) | 
17 | N#Cc1ccc(-c2ccccc2SC2=C(C(=O)O)N3C(=O)[C@@H](NC(=O)Cc4ccccc4)[C@H]3SC2)cc1 [Cmpd 23, (7R)-7-[(Phenylacetyl)amino]-3-(2-(4-cyanophenyl)phenylthio)-3-cephem-4-carboxylic acid] | 2 (≈ 3.79 µM) | 
18 | O=C(Cc1ccccc1)N[C@@H]1C(=O)N2C(C(=O)O)=C(Sc3cccc(Cl)c3Cl)CS[C@H]12 [Cmpd 24, (7R)-7-[(Phenylacetyl)amino]-3-(2,3-dichlorophenylthio)-3-cephem-4-carboxylic acid] | 1 (≈ 2.02 µM) | 
19 | O=C(Cc1cccs1)N[C@@H]1C(=O)N2C(C(=O)O)=C(Sc3ccccc3I)CS[C@H]12 [Cmpd 25, (7R)-7-[(2-Thienylacetyl)amino]-3-(o-iodophenylthio)-3-cephem-4-carboxylicacid] | 1 (≈ 1.79 µM) | 
20 | CN[C@H](CC(C)C)C(=O)N[C@H]1C(=O)N[C@@H](CC(N)=O)C(=O)N[C@H]2C(=O)N[C@H]3C(=O)N[C@H](C(=O)N[C@H](C(=O)O)c4cc(O)cc(O)c4-c4cc3ccc4O)[C@H](O)c3ccc(c(Cl)c3)Oc3cc2cc(c3O[C@@H]2O[C@H](CO)[C@@H](O)[C@H](O)[C@H]2O[C@H]2C[C@](C)(N)[C@H](O)[C@H](C)O2)Oc2ccc(cc2Cl)[C@H]1O [Vancomycin, reference compound] |  | Mortality ([2]; dose 0.625 mg/kg): 8/10; Mortality ([2]; dose 1.25 mg/kg): 6/10; Mortality ([2]; dose 2 mg/kg): 8/10; Mortality ([2]; dose 2.5 mg/kg): 5/10; Mortality ([2]; dose 4 mg/kg): 2/10; Mortality ([2]; dose 5 mg/kg): 5/10; Mortality ([2]; dose 8 mg/kg): 0/10; Mortality ([2]; dose 10 mg/kg): 2/10; Mortality ([2]; dose 16 mg/kg): 0/10; ED50 ([2]; two equal doses, S. aureus ATCC 13709 IP challenge, 4320 min): 2.79 mg/kg
